The source of these data is US11384055B2 (BIOMARIN PHARMACEUTICAL INC., priority 2017, dated 2022).

pIC50: −log10 of the molar value. Like-named read-outs stand apart in the source and are kept apart here.

The target in this assay is T1, Human GO (Homo sapiens, UniProt Q9UJM8).
T1 construct: purchased Novus Biologicals NBP1-72412
T1 sequence (Q9UJM8 1-370): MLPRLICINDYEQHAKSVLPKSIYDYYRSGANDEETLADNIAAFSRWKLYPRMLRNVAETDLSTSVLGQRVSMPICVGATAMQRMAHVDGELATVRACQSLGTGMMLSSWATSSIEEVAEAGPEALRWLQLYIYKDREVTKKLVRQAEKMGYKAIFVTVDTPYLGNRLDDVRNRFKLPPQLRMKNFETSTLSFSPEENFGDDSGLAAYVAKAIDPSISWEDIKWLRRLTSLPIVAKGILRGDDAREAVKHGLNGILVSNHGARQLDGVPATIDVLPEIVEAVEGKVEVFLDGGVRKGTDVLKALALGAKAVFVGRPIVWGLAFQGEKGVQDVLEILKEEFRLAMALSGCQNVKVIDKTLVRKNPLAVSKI
The experiment in a line: GO enzymatic assay (coupled fluorescence/HRP assay, glycolate substrate). The format is biochemical. As for the experimental part: Assay 1: GO Enzymatic Assay
GO was incubated with its substrate, glycolate, in 50 mM potassium phosphate buffer, pH 7. […] The enzyme was optimized and the kinetics was determined.
Compound inhibition was determined by adding various concentrations of inhibitors in the GO enzyme assay. The IC50 value for each measured compound was generated from sigmoidal dose-response (variable slope) curves with GraphPad Prism software (GraphPad Software, Inc., San Diego, Calif.) using the percent inhibition of GO activity relative to DMSO control.

The mark [1] stands for this setting: Table 1, read-out: Range (range of IC50 values calculated from the enzymatic assays).

On to `O=C(O)c1[nH]nnc1Sc1ccc(-c2ccc(Cl)c(OC(F)(F)F)c2)cc1` [Compound 30, 4-((4′-chloro-3′-(trifluoromethoxy)-[1,1′-biphenyl]-4-yl)thio)-1H-1,2,3-triazole-5-carboxylic acid], for which the negative-log IC50 (pIC50) under setting [1] is greater than 7.00. On the same count and under the same terms, the figure for `O=C(O)c1[nH]nnc1Sc1ccc(-c2cccc(OC(F)(F)F)c2Cl)cc1` [Compound 31, 4-((2′-chloro-3′-(trifluoromethoxy)-[1,1′-biphenyl]-4-yl)thio)-1H-1,2,3-triazole-5-carboxylic acid] is greater than 7.00. With `O=C(O)c1[nH]nnc1Sc1ccc(-c2ccc(OC(F)(F)F)c(Cl)c2)cc1` [Compound 32, 4-((3′-chloro-4′-(trifluoromethoxy)-[1,1′-biphenyl]-4-yl)thio)-1H-1,2,3-triazole-5-carboxylic acid], the pIC50 under setting [1] was greater than 7.00. Still for that read-out and setting: to `COC(=O)c1[nH]nnc1Sc1ccc(-c2ccc(OC(F)(F)F)cc2)cc1` [Compound 33, methyl 4-((4′-(trifluoromethoxy)-[1,1′-biphenyl]-4-yl)thio)-1H-1,2,3-triazole-5-carboxylate] belongs less than 5.00. On the same count and under the same terms, to `CCCCOc1ccc2sc(Sc3nn[nH]c3C(=O)O)nc2c1` [Compound 34, 4-((5-butoxybenzo[d]thiazol-2-yl)thio)-1H-1,2,3-triazole-5-carboxylic acid] belongs 6.00 to 7.00; to `Cn1c(Sc2nn[nH]c2C(=O)O)cnc1-c1ccc(Cl)c(Cl)c1` [Compound 35, 4-((2-(3,4-dichlorophenyl)-1-methyl-1H-imidazol-5-yl)thio)-1H-1,2,3-triazole-5-carboxylic acid 2,2,2-trifluoroacetate], 6.00 to 7.00. On to `O=C(O)c1[nH]nnc1Sc1csc(-c2ccc(Cl)c(Cl)c2)c1` [Compound 36, 4-((5-(3,4-dichlorophenyl)thiophen-3-yl)thio)-1H-1,2,3-triazole-5-carboxylic acid], for which the pIC50 under setting [1] was greater than 7.00. On the same count and under the same terms, the figure for `CN(C)CCOC(=O)c1[nH]nnc1Sc1ccc(-c2ccc(OC(F)(F)F)cc2)cc1` [Compound 37, 2-(dimethylamino)ethyl 4-((4′-(trifluoromethoxy)-[1,1′-biphenyl]-4-yl)thio)-1H-1,2,3-triazole-5-carboxylate] is less than 5.00. For `O=C(O)c1[nH]nnc1Sc1csc(-c2ccc(OC(F)(F)F)c(Cl)c2)n1` [Compound 39, 4-((2-(3-chloro-4-(trifluoromethoxy)phenyl)thiazol-4-yl)thio)-1H-1,2,3-triazole-5-carboxylic acid], the negative logarithm of the IC50 (pIC50) under setting [1] is greater than 7.00. The same measure, in the same setting: the figure for `COC(=O)c1[nH]nnc1Sc1csc(-c2ccc(OC(F)(F)F)c(Cl)c2)n1` [Compound 40, methyl 4-((2-(3-chloro-4-(trifluoromethoxy)phenyl)thiazol-4-yl)thio)-1H-1,2,3-triazole-5-carboxylate] is less than 5.00. `O=C(O)c1[nH]nnc1Sc1ccc(Cl)c(Cl)c1` [Compound 41, 4-((3,4-dichlorophenyl)thio)-1H-1,2,3-triazole-5-carboxylic acid] gave a pIC50 greater than 7.00. `O=C(O)c1[nH]nnc1Sc1cccc(-c2ccc(OC(F)(F)F)cc2)c1` [Compound 42, 4-((4′-(trifluoromethoxy)-[1,1′-biphenyl]-3-yl)thio)-1H-1,2,3-triazole-5-carboxylic acid]: the negative logarithm of the IC50 (pIC50) under setting [1] was greater than 7.00.

Take `O=C(O)c1[nH]nnc1Sc1nc(-c2ccc(OC(F)(F)F)c(Cl)c2)cs1` [Compound 43, 4-((4-(3-chloro-4-(trifluoromethoxy)phenyl)thiazol-2-yl)thio)-1H-1,2,3-triazole-5-carboxylic acid]: the negative logarithm of the IC50 (pIC50) under setting [1] was greater than 7.00. With `COC(=O)c1[nH]nnc1Sc1nc(-c2ccc(OC(F)(F)F)c(Cl)c2)cs1` [Compound 44, methyl 4-((4-(3-chloro-4-(trifluoromethoxy)phenyl)thiazol-2-yl)thio)-1H-1,2,3-triazole-5-carboxylate], the negative-log IC50 (pIC50) under setting [1] was less than 5.00.

For `O=C(OC1COC1)c1[nH]nnc1Sc1ccc(-c2ccc(OC(F)(F)F)cc2)cc1` [Compound 45, oxetan-3-yl 4-((4′-(trifluoromethoxy)-[1,1′-biphenyl]-4-yl)thio)-1H-1,2,3-triazole-5-carboxylate], under setting [1], the pIC50 was 5.00 to 6.00.

For `O=C(O)c1[nH]nnc1Sc1ccc2cc(Cl)ccc2n1` [Compound 46, 4-((6-chloroquinolin-2-yl)thio)-1H-1,2,3-triazole-5-carboxylic acid], the negative-log IC50 (pIC50) under setting [1] is 6.00 to 7.00. Still for that read-out and setting: the figure for `O=C(O)c1[nH]nnc1Sc1ccc(-c2ccc(Cl)cc2)c(Cl)c1` [Compound 47, 4-((2,4′-dichloro-[1,1′-biphenyl]-4-yl)thio)-1H-1,2,3-triazole-5-carboxylic acid] is greater than 7.00. The same measure, in the same setting: to `O=C(O)c1[nH]nnc1Sc1ccc(-c2ccc(Cl)cc2)cc1Cl` [Compound 48, 4-((3,4′-dichloro-[1,1′-biphenyl]-4-yl)thio)-1H-1,2,3-triazole-5-carboxylic acid] belongs greater than 7.00. The same measure, in the same setting: to `O=C(O)c1[nH]nnc1Sc1ccc(F)c(F)c1` [Compound 49, 4-((3,4-difluorophenyl)thio)-1H-1,2,3-triazole-5-carboxylic acid] belongs greater than 7.00. For `O=C(O)c1[nH]nnc1Sc1ccc2c(c1)CCCC2` [Compound 50, 4-((5,6,7,8-tetrahydronaphthalen-2-yl)thio)-1H-1,2,3-triazole-5-carboxylic acid], under setting [1], the pIC50 was greater than 7.00. Same read-out and setting: the figure for `CC(C)(C)C(=O)OCn1nnc(Sc2ccc(-c3ccc(OC(F)(F)F)cc3)cc2)c1C(=O)O` [Compound 51, 1-((pivaloyloxy)methyl)-4-((4′-(trifluoromethoxy)-[1,1′-biphenyl]-4-yl)thio)-1H-1,2,3-triazole-5-carboxylic acid] is 6.00 to 7.00. The same measure, in the same setting: to `CC(C)C(=O)OCn1nnc(Sc2ccc(-c3ccc(OC(F)(F)F)cc3)cc2)c1C(=O)O` [Compound 52, 1-((isobutyryloxy)methyl)-4-((4′-(trifluoromethoxy)-[1,1′-biphenyl]-4-yl)thio)-1H-1,2,3-triazole-5-carboxylic acid] belongs 6.00 to 7.00; to `O=C(O)c1[nH]nnc1Sc1ccc2ncsc2c1` [Compound 53, 4-(benzo[d]thiazol-6-ylthio)-1H-1,2,3-triazole-5-carboxylic acid 2,2,2-trifluoroacetate], greater than 7.00; to `CC(C)(C)C(=O)OCOC(=O)c1[nH]nnc1Sc1ccc(-c2ccc(OC(F)(F)F)cc2)cc1` [Compound 54, (pivaloyloxy)methyl 4-((4′-(trifluoromethoxy)-[1,1′-biphenyl]-4-yl)thio)-1H-1,2,3-triazole-5-carboxylate], 5.00 to 6.00. Consider `CC(C)C(=O)OCOC(=O)c1[nH]nnc1Sc1ccc(-c2ccc(OC(F)(F)F)cc2)cc1` [Compound 55, (isobutyryloxy)methyl 4-((4′-(trifluoromethoxy)-[1,1′-biphenyl]-4-yl)thio)-1H-1,2,3-triazole-5-carboxylate], for which the negative logarithm of the IC50 (pIC50) under setting [1] is 6.00 to 7.00. On the same count and under the same terms, to `O=C(O)c1[nH]nnc1Sc1ccc2cc(Cl)ccc2c1` [Compound 56, 4-((6-chloronaphthalen-2-yl)thio)-1H-1,2,3-triazole-5-carboxylic acid] belongs greater than 7.00; to `O=C(O)c1[nH]nnc1SC1Cc2cc(Cl)c(Cl)cc2C1` [Compound 57, 4-((5,6-dichloro-2,3-dihydro-1H-inden-2-yl)thio)-1H-1,2,3-triazole-5-carboxylic 2,2,2-trifluoroacetate], greater than 7.00; to `CCOC(=O)c1[nH]nnc1Nc1ccc(-c2ccc(Cl)cc2)cc1` [Compound 58-1, ethyl 4-((4′-chloro-[1,1′-biphenyl]-4-yl)amino)-1H-1,2,3-triazole-5-carboxylate], less than 5.00.

`O=C(O)c1[nH]nnc1Nc1ccc(-c2ccc(Cl)cc2)cc1` [Compound 58-2, 4-((4′-chloro-[1,1′-biphenyl]-4-yl)amino)-1H-1,2,3-triazole-5-carboxylic acid]: the pIC50 under setting [1] is greater than 7.00. In the case of `O=C(O)c1[nH]nnc1Nc1nc(-c2ccc(Cl)c(Cl)c2)cs1` [Compound 59, 4-((4-(3,4-dichlorophenyl)thiazol-2-yl)amino)-1H-1,2,3-triazole-5-carboxylic acid], under setting [1], the pIC50 is greater than 7.00. Still for that read-out and setting: the figure for `O=C(O)c1[nH]nnc1Nc1ccc(-c2ccc(Cl)c(Cl)c2)cc1` [Compound 60, 4-((3′,4′-dichloro-[1,1′-biphenyl]-4-yl)amino)-1H-1,2,3-triazole-5-carboxylic acid] is greater than 7.00. In the case of `O=C(O)c1[nH]nnc1Nc1csc(-c2ccc(Cl)c(Cl)c2)n1` [Compound 61, ammonium 4-((2-(3,4-dichlorophenyl)thiazol-4-yl)amino)-1H-1,2,3-triazole-5-carboxylate], the pIC50 under setting [1] was greater than 7.00. In the case of `O=C(O)c1[nH]nnc1Nc1ccc(-c2ccc(OC(F)(F)F)cc2)cc1` [Compound 62, 4-((4′-(trifluoromethoxy)-[1,1′-biphenyl]-4-yl)amino)-1H-1,2,3-triazole-5-carboxylic acid 2,2,2-trifluoroacetate], under setting [1], the pIC50 is greater than 7.00. The same measure, in the same setting: the figure for `CN(c1csc(-c2ccc(Cl)c(Cl)c2)n1)c1nn[nH]c1C(=O)O` [Compound 63, 4-((2-(3,4-dichlorophenyl)thiazol-4-yl)(methyl)amino)-1H-1,2,3-triazole-5-carboxylic acid] is 6.00 to 7.00; for `O=C(O)c1[nH]nnc1Nc1nc(-c2ccc(OC(F)(F)F)c(Cl)c2)cs1` [Compound 64, 4-((4-(3-chloro-4-(trifluoromethoxy)phenyl)thiazol-2-yl)amino)-1H-1,2,3-triazole-5-carboxylic acid] it is greater than 7.00.

The term pIC50 denotes the IC50 on a negative log10 scale, so that one unit is a factor of ten.
